Measurements reported in patent publication US7332489B2, “Methods and compositions of novel triazine compounds” (Reddy US Therapeutics, Inc., priority 2003, dated 2008).
Structures can show the parent of a compound that is named as a salt. Where two headings read alike, the source gives them in different places.

Assays:
[1] = test system: Human aortic smooth muscle cells; assay: Smooth muscle cell proliferation assay / anti-proliferation assay (perlecan); settings: for Proliferation Data (result in words): screens at 5 & 10 uM
Procedure: Human aortic smooth muscle cells (Clonetics) were used. Cells were grown in basal medium containing 5% fetal bovine serum supplemented with growth factors, basic fibroblast growth factor, epidermal growth factor and insulin. […] The cells were then serum starved for 24 h to induce quiescence. Fresh growth medium containing no compound or 10 μM compound was then added and further incubated for 24 h. Cell number was determined by using a cell proliferation assay kit (Celltiter96 AQueous from Promega).

TNF-α induced IL-6 = assay: TNF-α-induced IL-6 production determined by IL-6 ELISA; assay type: cell-based; settings: for activity at 10 µM: Homo sapiens, 24 h
Procedure, shortened: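 Human aortic endothelial cells grown to ≥90% confluence, then treated with compounds and stimuli in serum-free medium with 0.2% albumin. Secreted IL-6 in collected media measured by sandwich ELISA (2 ug/ml capture, 200 ng/ml biotinylated detection antibody, streptavidin-HRP), read at 450 nm.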

cells = assay: Cytotoxicity/Lactate Dehydrogenase assay; assay type: cell-based; settings: toxic or cause cell death; concentrations (uM) given
Procedure: An appropriate number of cells are plated in four 96-well plates, one plate for “day 0” and three plates for days 1-3. Cells are treated with at least one compound of the present invention in varying concentrations with and without the apoptosis inducer cisplatin (2 μM) (“+cis” or “-cis”). Unteated cells are also assayed with and without cisplatin. After transfection, the plates are incubated at 37° C. overnight.
An appropriate number of cells are plated in four 96-well plates, one plate for “day 0” and three plates for days 1-3. Cells are treated with at least one compound of the present invention in varying concentrations. The negative control cells have normal media conditions, a duplicate set of wells is treated with the composition in which the compound is provided, but there is no added compound and the positive control cells are treated with the apoptosis inducer cisplatin (2 μM). All of the cells are transfected with a vector having a promoter that is responsive to apoptosis conditions. When apoptosis occurs, the promoter is turned on and the lactic dehydrogenase gene is activated and the enzyme protein is made and active. Activity is easily detected with a color change. After transfection, the plates are incubated at 37° C. overnight.
About 8 mls of warmed alpha MEM LDH lysis buffer (2% Triton X100) and about 8 mls of culture media (1/2 dilution) are combined. Two 96-well v-bottom plates are prepared, one labeled “lysis” and one labeled “supernatant.” To lyse the cells, about 200 μl Alpha MEM lysis buffer (diluted 1/2) is added to one test plate from which the supernatant has been removed and added to the plate labeled supernatant. After mixing, about 200 μl of lysed cells are transferred to the lysis plate. Both the lysis and supernatant plates are centrifuged at about 1600 rpm for about 10 min. After centrifugation, about 100 μl of both the supernatant or lysate is transferred to corresponding 96-well flat-bottomed plates.
The assay for cytotoxicity uses the Cytotoxicity Detection Kit (LDH) from Roche Diagnostics Corp. (Indianapolis, Ind.). Using the directions provided, the dye solution is mixed and added each well of the lysate and supernatant plate and incubated for up to 20-25 min at 15-25° C. in the dark.

[2] = Homo sapiens, read-out: Activity (note 1), anti-proliferation assay (perlecan)
[3] = Homo sapiens, read-out: Avg IC-50, anti-proliferation assay (perlecan)
[4] = Table 5, first part, class = % of control IL6 production, read-out: Inhibition of TNF-induced IL6 production

COc1ccc(Nc2nc(NC3CCCCCC3)nc(N3CCCC3CO)n2)cc1Cl (stereo not shown) was tested, and the “Proliferation Data, cell morphology (rounding, blunting, morphology change)” value [1] was “rounding”, the “Proliferation Data (result in words)” value [1] was “Did not pass 5 & 10 uMscreens” and the “Inflammation Data (result in words)” value (TNF-α induced IL-6; concentration not given) was “Not Active”.
For COc1ccc(Nc2nc(NC3CCCCCC3)nc(N3CCN(C)CC3)n2)cc1Cl, the “Proliferation Data, cell morphology (rounding, blunting, morphology change)” value [1] was “blunting androunding”, the “Proliferation Data (result in words)” value [1] was “Did not pass 5 & 10 uMscreens” and the “Inflammation Data, activity in words at 5 uM” value (TNF-α induced IL-6; 5 uM) was “not active”. The “Inflammation Data, cell death at 5 uM” value (TNF-α induced IL-6; 5 uM) was 25% and the “Inflammation Data, cell death at 10 uM” value (TNF-α induced IL-6; 10 uM) was “total cell death”.
With CCc1occc(=O)c1Oc1nc(Nc2ccc(OC)c(Cl)c2)nc(NC2CCCCCC2)n1 the “Proliferation Data (result in words)” value [1] was “Not active at 5 & 10 uM” and the “Inflammation Data, cell death at 10 uM” value (TNF-α induced IL-6; 10 uM) was 20%.
For COc1ccc(Nc2nc(NC3CCCCCC3)nc(OC3CCN(C)CC3)n2)cc1Cl, the “Proliferation Data, cell morphology (rounding, blunting, morphology change)” value [1] was “rounding at 5 & 10 uM” and the “Inflammation Data, cell death at 10 uM” value (TNF-α induced IL-6; 10 uM) was “total cell death”.
In the case of COc1ccc(Nc2nc(NC3CCCCCC3)nc(NC3CCN(Cc4ccccc4)CC3)n2)cc1F, the “Proliferation Data, cell morphology (rounding, blunting, morphology change)” value [1] is reported as “cell bluntingat 3 uM and rounding at 5 uM”, the “Inflammation Data, cell death at 5 uM” value (TNF-α induced IL-6; 5 uM) is reported as 25% and the “Inflammation Data, cell death at 10 uM” value (TNF-α induced IL-6; 10 uM) is reported as “total cell death”.
CCN1CCCC1CNc1nc(Nc2cccc3cccnc23)nc(NC2CCCCCC2)n1 (stereo not shown) [Compound 5, N^2-cycloheptyl-N^4-[(1-ethyl-2-pyrrolidinyl)methyl]-N^6-(8-quinolinyl)-1,3,5-triazine-2,4,6-triamine] was tested, and the Toxicity (cells) was “toxic”.
In the case of CCN1CCCC1CNc1nc(Nc2ccc(Cl)c(Cl)c2)nc(NC2CCCCCC2)n1 (stereo not shown) [Compound 7, N^2-cycloheptyl-N^4-(3,4-dichlorophenyl)-N^6-[(1-ethyl-2-pyrrolidinyl)methyl]-1,3,5-triazine-2,4,6-triamine], the Toxicity (cells) is reported as “toxic”.
CCN1CCCC1CNc1nc(Nc2ccc(F)c(F)c2)nc(NC2CCCCCC2)n1 (stereo not shown) [Compound 8, N^2-cycloheptyl-N^4-(3,4-difluorophenyl)-N^6-[(1-ethyl-2-pyrrolidinyl)methyl]-1,3,5-triazine-2,4,6-triamine] was tested, and the Toxicity (cells) was “toxic”.
For CCN1CCCC1CNc1nc(Nc2ccc(OC(F)(F)F)cc2)nc(NC2CCCCCC2)n1 (stereo not shown) [Compound 9, N^2-cycloheptyl-N^4-[(1-ethyl-2-pyrrolidinyl)methyl]-N^6-[4-(trifluoromethoxy)phenyl]-1,3,5-triazine-2,4,6-triamine], the Toxicity (cells) was “toxic”.
With CCN1CCCC1CNc1nc(Nc2ccc(Cl)cc2)nc(NC2CCCCCC2)n1 (stereo not shown) [Compound 12, N^2-(4-chlorophenyl)-N^4-cycloheptyl-N^6-[(1-ethyl-2-pyrrolidinyl)methyl]-1,3,5-triazine-2,4,6-triamine] the Toxicity (cells) was “toxic”.
For CCN1CCCC1CNc1nc(Nc2ccc(Br)cc2)nc(NC2CCCCCC2)n1 (stereo not shown) [Compound 13, N^2-(4-bromophenyl)-N^4-cycloheptyl-N^6-[(1-ethyl-2-pyrrolidinyl)methyl]-1,3,5-triazine-2,4,6-triamine], the Toxicity (cells) was “toxic”.
In the case of CCOC(=O)c1ccc(Nc2nc(NCC3CCCN3CC)nc(NC3CCCCCC3)n2)cc1 (stereo not shown) [Compound 14, Ethyl 4-[(4-(cycloheptylamino)-6-{[(1-ethyl-2-pyrrolidinyl)methyl]amino}-1,3,5-triazin-2-yl)-amino]benzoate], the Toxicity (cells) is reported as “toxic”.
In the case of CCN1CCCC1CNc1nc(Nc2cccc(F)c2)nc(NC2CCCCCC2)n1 (stereo not shown) [Compound 16, N^2-cycloheptyl-N^4-[(1-ethyl-2-pyrrolidinyl)methyl]-N^6-(3-fluorophenyl)-1,3,5-triazine-2,4,6-triamine], the Toxicity (cells) is reported as “toxic”.
CCN1CCCC1CNc1nc(Nc2ccccc2Cl)nc(NC2CCCCCC2)n1 (stereo not shown) [Compound 21, N^2-(2-chlorophenyl)-N^4-cycloheptyl-N^6-[(1-ethyl-2-pyrrolidinyl)methyl]-1,3,5-triazine-2,4,6-triamine] was tested, and the Toxicity (cells) was “toxic”.
In the case of CCN1CCCC1CNc1nc(Nc2ccccc2Br)nc(NC2CCCCCC2)n1 (stereo not shown) [Compound 22, N^2-(2-bromophenyl)-N^4-cycloheptyl-N^6-[(1-ethyl-2-pyrrolidinyl)methyl]-1,3,5-triazine-2,4,6-triamine], the Toxicity (cells) is reported as “toxic”.
In the case of CCN1CCCC1CNc1nc(Nc2ccc(Oc3ccccc3)cc2)nc(NC2CCCCCC2)n1 (stereo not shown) [Compound 36, N^2-cycloheptyl-N^4-[(1-ethyl-2-pyrrolidinyl)methyl]-N^6-(4-phenoxyphenyl)-1,3,5-triazine-2,4,6-triamine], the Toxicity (cells) is reported as “toxic”.
For CCN1CCCC1CNc1nc(NC2CCCCCC2)nc(N(C)c2ccc(OC(F)(F)F)cc2)n1 (stereo not shown) [Compound 47, N^2-cycloheptyl-N^4-[(1-ethyl-2-pyrrolidinyl)methyl]-N^6-methyl-N^6-[4-(trifluoromethoxy)phenyl]-1,3,5-triazine-2,4,6-triamine], the Toxicity (cells) was “toxic”.
With CCN1CCCC1CNc1nc(Nc2ccc(OC)c(F)c2)nc(NC2CCCCCCC2)n1 (stereo not shown) [Compound 54, N^2-cyclooctyl-N^4-[(1-ethyl-2-pyrrolidinyl)methyl]-N^6-(3-fluoro-4-methoxyphenyl)-1,3,5-triazine-2,4,6-triamine] the Toxicity (cells) was “toxic”.
With CCN1CCCC1CNc1nc(Nc2ccc(OC)c(F)c2)nc(N2CCCC3CCCCC32)n1 (stereo not shown) [Compound 59, N^2-[(1-ethyl-2-pyrrolidinyl)methyl]-N^4-(3-fluoro-4-methoxyphenyl)-N^6-octahydro-1(2H)-quinolinyl-1,3,5-triazine-2,4-diamine] the Toxicity (cells) was “toxic”.
With COc1ccc(Nc2nc(OCC3CCCCC3)nc(N(C)C3CCN(C)CC3)n2)cc1Cl [Compound 119, N-(3-Chloro-4-methoxy-phenyl)-6-cyclohexylmethoxy-N′-methyl-N′-(1-methyl-piperidin-4-yl)-[1,3,5]triazine-2,4-diamine] the Toxicity (cells) was “toxic”.
CCN1CCC[C@H]1CNc1nc(Nc2ccc(OC)c(F)c2)nc(NC2CCCCCC2)n1 [Compound 139, N^2-cycloheptyl-N^4-((S)-1-ethyl-pyrrolidin-2-ylmethyl)-N^6-(3-fluoro-4-methoxyphenyl)-1,3,5-triazine-2,4,6-triamine] was tested, and the IC50 [1, 2] was 3 to 7 µM, the IC50 [1, 3] was 4 to 5 µM and the activity at 10 µM (TNF-α induced IL-6; [4]) was 0 to 25%.
With CCN1CCC[C@@H]1CNc1nc(Nc2ccc(OC)c(F)c2)nc(NC2CCCCCC2)n1 [Compound 140, N^2-cycloheptyl-N^4-((R)-1-ethyl-pyrrolidin-2-ylmethyl)-N^6-(3-fluoro-4-methoxyphenyl)-1,3,5-triazine-2,4,6-triamine] the IC50 [1, 2] was 3 to 7 µM, the IC50 [1, 3] was 4 to 5 µM and the “% IL6 production compare to TNF stimulation of IL6 (100%), Compds tested @ 10 uM HAEC, IL6” value (TNF-α induced IL-6; HAEC, 10 uM compound, TNF stimulation = 100%) was 12.57%. The activity at 10 µM (TNF-α induced IL-6; [4]) was 0 to 25%.
In the case of COc1ccc(Nc2nc(NC3CCCCCC3)nc(N(C)C3CCN(C)CC3)n2)cc1F [Compound 160, N^2-cycloheptyl-N^4-(3-fluoro-4-methoxyphenyl)-N^6-methyl-N^6-(1-methyl-piperidin-4-yl)-1,3,5-triazine-2,4,6-triamine, hydrogen chloride salt], the IC50 ([1]; read-out: Activity (note 1), anti-proliferation assay (perlecan)) is reported as 3 to 7 µM, the IC50 ([1]; read-out: Avg IC-50, anti-proliferation assay (perlecan)) is reported as 4 to 5 µM and the activity at 10 µM (TNF-α induced IL-6; read-out: % IL6 production compare to TNF stimulation of IL6 (100%), Compds tested @ 10 uM HAEC, IL6) is reported as 1%. For the same compound, the activity at 10 µM (TNF-α induced IL-6; read-out: Inhibition of TNF-induced IL6 production) was 0 to 25%.
In the case of COc1ccc(Nc2nc(NC3CCCCCC3)nc(N(C)C3CCN(C)CC3)n2)cc1F [Compound 167, N^2-cycloheptyl-N^4-(3-fluoro-4-methoxy-phenyl)-N^6-methyl-N^6-(1-methyl-piperidin-4-yl)-1,3,5-triazine-2,4,6-triamine maleate salt], the IC50 ([1]; read-out: Activity (note 1), anti-proliferation assay (perlecan), maleate salt) is reported as greater than 7 µM and the “% IL6 production compare to TNF stimulation of IL6 (100%), HAEC, IL6, @ 5 uM” value (TNF-α induced IL-6; HAEC, TNF stimulated, compound 5 uM (bracketed value), maleate salt) is reported as 25%.
For COc1ccc(Nc2nc(NC3CCCCCC3)nc(OC3CCCN(C(C)=O)C3)n2)cc1Cl (stereo not shown) [drawing 1597], the “Proliferation Data (result in words)” value [1] was “Not active at 5 & 10 uM” and the “Inflammation Data, inhibition at 10 uM” value (TNF-α induced IL-6; 10 uM) was “complete inhibition at 10 uM”.
In the case of COc1ccc(Nc2nc(NC3CCCCCC3)nc(OCC3CCCN3)n2)cc1Cl (stereo not shown) [drawing 1599], the “Proliferation Data (result in words)” value [1] is reported as “Not active at 5 & 10 uM”.
For COc1ccc(Nc2nc(NC3CCCCCC3)nc(NC3CCN(Cc4ccccc4)CC3)n2)cc1Cl [drawing 1615], the “Proliferation Data, cell morphology (rounding, blunting, morphology change)” value [1] was “cell blunting at 1 uMand rounding at 5 uM”, the “Inflammation Data, cell death at 5 uM” value (TNF-α induced IL-6; 5 uM) was 20% and the “Inflammation Data, cell death at 10 uM” value (TNF-α induced IL-6; 10 uM) was greater than 50%.
